“Also recorded” adds a separate entry of the source.
Columns and labels:
PBMCs = assay: T-cell activation assay (IL-2 production in PBMCs, NECA-suppressed, anti-CD3/anti-CD28); format: cell-based; conditions: 10, 100, 1000 nM antagonist with 1000 nM NECA; ELISA after 48 h; Figure 3
Description: The effector functions of T cells that express A2 ARs can be evaluated by measuring specific cytokine production[4]^,[9]^,[38]. In this study, the efficiencies of selected antagonists on IL-2 production (T cell activation) were examined. […] However, when the antagonist was added, the concentration of IL-2 was restored, indicating the inhibition effect of NECA was blocked.
Figure 3. The efficiencies of selected compounds for IL-2 production. The efficiencies of selected antagonists on T-cell activation at 10 nM, 100 nM, and 1000 nM were tested in the presence or absence of 1000 nM NECA. The DMSO control was tested in the absence of both antagonists and NECA. The NECA control was tested without antagonists in the presence of 1000 nM NECA.
Cryopreserved PBMCs (Allcells) were thawed and recovered in RPMI1640 medium overnight before being used. And compounds to be tested were diluted with DMSO to 100 folds of working concentrations. Then PBMCs were added to 96-well U bottom plate (2.5 × 10^5 cells per well). To the cells, 2 μl of NECA and 2 μl of each diluted compound (a final concentration of DMSO is 2%) were added. Then, cells were incubated at 37 °C under 5% CO2 for 1 h. Add 100 μl anti-CD3 (2 μg/ml) and anti-CD28 antibody (2 μg/ml) to each well and cells were cultured for 48 h. After 48 h, supernatants were collected and IL-2 concentration was detected by ELISA.

[1] = Metabolic stability in human liver microsomes; format: in vitro ADME
Description: The metabolic stability is an important focus for further compound optimisation. Compounds 7f, 7i, and AB928 were chosen to evaluate the stability in rat liver microsomes and human liver microsomes. For the microsomal metabolic experiment, 7-ethoxycoumarin (7-EC) was used as a control. As shown in Table 4 (see Supporting information for raw data), the CLint(liver) of 7-EC in rats and humans was 10.0 and 9.0 ml/min/g liver, respectively, indicating the experimental test system was reliable.
Metabolic stabilities of compounds 7f, 7i, and AB928 in liver microsomes were studied with pooled human (male) liver microsomes solution (20 mg/ml) and male Sprague–Dawley rats pooled liver microsomes solution (20 mg/ml) purchased from Research Institute for Liver Diseases (Shanghai) Co. Ltd. Both liver microsomes solutions (140 μl) were diluted by 3948 μl of water and 280 μl of phosphate buffered saline. The assay procedure: 640 μl of diluted liver microsomes solution was added to a solution of compound working solution (16 μl, 25 μM in DMSO) and the mixed solution was incubated at 37 °C for 5 min. Then 160 μl of NADPH generating system was added and take out 100 μl from the mixed solution was added 200 μl of acetonitrile solution to stop the reaction at the set incubation time (0 min, 10 min, 20 min, 30 min, 40 min, 50 min, and 60 min). All stopped reaction solutions were vortex mixed (3 min) and centrifuged (10,000 rpm, 4 °C for 10 min). Then 50 μl of the supernatant was analysed by UPLC-MS/MS system (details of the analytical method see Supporting information). […]
8. Metabolic stability in human and rat liver microsomes
Metabolic stabilities of compounds 7f, 7i and AB928 in liver microsomes were studied with pooled human (male) liver microsomes solution (20 mg/mL) and male Sprague - Dawley rats pooled liver microsomes solution (20 mg/mL) purchased from Research Institute for Liver Diseases (Shanghai) Co. Ltd. Both liver microsomes solutions (140 μL) were diluted by 3948 μL of water and 280 μL of phosphate buffered saline. The assay procedure: 640 μL of diluted liver microsomes solution was added to a solution of compound working solution (16 μL, 25 μM in DMSO) and the mixed solution was […]
(1 picture or pasted object on this page, not shown here) […]
incubated at 37 ℃ for 5 min. Then 160 μL of NADPH generating system was added and take out 100 μL from the mixed solution was added 200 μL of acetonitrile solution to stop the reaction at the set incubation time (0 min, 10 min, 20 min, 30 min, 40 min, 50 min, and 60 min). All stopped reaction solutions were vortex mixed (3 min) and centrifuged (10000 rpm, 4 ℃ for 10 min). Then 50 μL of the supernatant was analyzed […]
8.2 Chromatography and mass spectrometry conditions
UPLC was performed using an […] UPLC system (Waters, Milford, MA, […]
USA). Separation was achieved on a Waters BEH C18 column(100 mm × 2.1 mm， 1.7 μm) at 40 ℃. The injection volume of the sample solution was 5 μL. The mobile phase consisted of water (0.1% formic acid and ammonium acetate) and acetonitrile solution (20:80, v/v) at a flow rate of 0.4 mL/min within a running time of 6 min. Mass spectrometric analysis was performed on a Waters Xevo TQ-S triple quadrupole instrument using electrospray ionization in positive mode. Quantification was performed using multiple reaction monitoring (MRM) mode to monitor precursor-product ion transitions (Table S1).
Table S1. Conditions of MRM Detection. […]
Table S2. Raw data of metabolic stability in human and rat liver microsomes. […]
(min) Hum Rat Hum Rat Hum Rat Hum Rat
9. Analytical method of pharmacokinetics assay
Animal experiments were performed according to the institutional ethical guidelines on animal care and approved by the Institute Animal Care and Use Committee at Binzhou […]
Female Bal b/c mice (sourced from Jinan Pengyue Experimental Animal Breeding […]

Row | remaining at 10 min, 0.49 µM ([1]; male, human, microsomes) [%] | remaining at 20 min, 0.49 µM ([1]; male, human, microsomes) [%] | remaining at 0.5 h, 0.49 µM ([1]; male, human, microsomes) [%] | remaining at 40 min, 0.49 µM ([1]; male, human, microsomes) [%] | remaining at 50 min, 0.49 µM ([1]; male, human, microsomes) [%] | remaining at 1 h, 0.49 µM ([1]; male, human, microsomes) [%] | CLint(liver) Hum ([1]; human, microsomes) [mL/min/g] | half-life at 0.49 µM ([1]; male, human, microsomes) [h] | Structure (SMILES) | IL-2 production (T cell activation) (PBMCs) | metabolism on human liver microsomes (in words) [1]
1 | 96.3 | 96.5 | 107 | 98.4 | 102 | 105 |  |  | Cc1c(C#N)cccc1-c1cc(-c2cn(Cc3cccc(C#N)n3)nn2)nc(N)n1 [Compound 7f, 6-((4-(2-Amino-6-(3-cyano-2-methylphenyl)pyrimidin-4-yl)-1H-1,2,3-triazol-1-yl)methyl)picolinonitrile] | sufficient activities to stimulate IL-2 production | hardly metabolised on human liver microsomes
2 | 98 | 108 | 116 | 101 | 95 | 98.8 | 0.06 | 19.2 | Cc1c(C#N)cccc1-c1cc(-c2cn(Cc3cccc(C(N)=O)n3)nn2)nc(N)n1 [Compound 7i, 6-((4-(2-Amino-6-(3-cyano-2-methylphenyl)pyrimidin-4-yl)-1H-1,2,3-triazol-1-yl)methyl)picolinamide] | sufficient activities to stimulate IL-2 production; also recorded: better activity than AB928 | hardly metabolised on human liver microsomes
